The results in this text go back to patent publication US10125129B2 (priority 2016, dated 2018).

One data set concerns the target T1, μ opioid receptor (MOR) (Homo sapiens, UniProt P35372).
T1 construct: expressed in transfected cells
Description: cell-based. Format: cell-based.

The next data set addresses T2, κ opioid receptor (KOR) (Homo sapiens, UniProt P41145).
T2 construct: expressed in transfected cells
Kind of data set: cell-based. The class given is cell-based.

For data set [1], the system named is mice. Kind of data set: Centrally mediated antinociceptive effects (tail-flick), i.p. doses, 10 s cutoff. The class given is in vivo.
The next data set concerns Sprague Dawley rats. Kind of data set: Conditioned place preference assay. The following applies: i.p.
In data set [2] the test system is mice. Kind of data set: Hot water tail-flick cumulative dose-response (s.c.). The class given is in vivo. The following applies: Mus musculus, sc, 0.5 h, cumulative s.c. doses 1-30 mg/kg, latency 30 min after each dose.
Data set [3] has as its system mice. Kind of data set: Hot water tail-flick tolerance evaluation, daily dosing. The class given is in vivo. The settings on record: for antinociceptive effects over days of daily administration (tolerance): 7 mg/kg i.p. daily, days 1, 3, 5, 6, mice; for antinociceptive effects on day 6 challenge after daily vehicle: daily vehicle treated mice challenged on day 6.
In data set [4] the test system is mice. Description: Accelerating rotarod performance assay. The settings on record: 10 mg/kg i.p.; compared to kurkinorin and vehicle. (The rotarod test checks motor coordination on a turning rod.)

Entries after “also recorded” stand apart in the source; their conditions may differ. Where two headings read alike, the source gives them in different places.

T1 sequence (P35372 whole entry): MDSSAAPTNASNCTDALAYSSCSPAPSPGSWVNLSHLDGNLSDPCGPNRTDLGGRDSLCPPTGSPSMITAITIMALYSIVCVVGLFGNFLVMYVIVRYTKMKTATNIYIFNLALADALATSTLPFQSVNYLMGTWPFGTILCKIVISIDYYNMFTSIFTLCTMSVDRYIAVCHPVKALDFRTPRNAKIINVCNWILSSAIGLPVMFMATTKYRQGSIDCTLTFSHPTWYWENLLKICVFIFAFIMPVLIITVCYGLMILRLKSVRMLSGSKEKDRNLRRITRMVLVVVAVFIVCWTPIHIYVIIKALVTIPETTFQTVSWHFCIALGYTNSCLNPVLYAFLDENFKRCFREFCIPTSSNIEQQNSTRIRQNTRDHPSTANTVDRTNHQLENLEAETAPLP
T2 sequence (P41145 whole entry): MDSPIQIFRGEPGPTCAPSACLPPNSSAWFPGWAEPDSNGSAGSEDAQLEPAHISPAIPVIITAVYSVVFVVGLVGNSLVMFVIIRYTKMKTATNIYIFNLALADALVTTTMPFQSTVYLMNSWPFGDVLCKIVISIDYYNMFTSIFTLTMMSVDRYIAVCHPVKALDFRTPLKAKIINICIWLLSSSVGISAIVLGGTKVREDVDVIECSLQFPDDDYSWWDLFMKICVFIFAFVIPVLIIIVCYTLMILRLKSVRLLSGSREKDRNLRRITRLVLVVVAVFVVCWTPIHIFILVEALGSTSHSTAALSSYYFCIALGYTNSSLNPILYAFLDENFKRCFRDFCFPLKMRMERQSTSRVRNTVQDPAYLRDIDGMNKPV

The term EC50 denotes the concentration giving half of the maximal effect. For `COC(=O)[C@@H]1C[C@H](OC(=O)c2ccccc2)C(=O)[C@H]2[C@@]1(C)CC[C@H]1C(=O)O[C@H](c3ccoc3)C[C@]21C` [Compound 2, herkinorin, reference compound], on μ opioid receptor (MOR), the “Selectivity μ/κ” value came out at 4.4. The “selectivity for the MOR over KOR” value on μ opioid receptor (MOR) was determined as 4.4 fold. For the same molecule, the EC50 at μ opioid receptor (MOR) (EC50 ± SEM μ) turned out to be 39 ± 4 nM; at μ opioid receptor (MOR) (Series 1 EC50) it was 42 ± 4 nM; on κ opioid receptor (KOR) (read-out: EC50 ± SEM κ) it was 170 ± 30 nM. Moreover, the antinociceptive effects result in the data set on mice [1] (1, 5, and 10 mg/kg, i.p., 10 s cutoff) was “no significant antinociceptive effects”. Also, the conditioned place preference entry with Sprague Dawley rats (5 mg/kg) is recorded as “Neither kurkinorin (5) nor herkinorin (2) were significantly different to vehicle”.

A word on the ED50: it is the dose that gives a 50% effect, or the effect in half of the subjects. Higher therefore signals a need for a large dose. For the molecule `COC(=O)[C@@H]1C=C(OC(=O)c2ccccc2)C(=O)[C@H]2[C@@]1(C)CC[C@H]1C(=O)O[C@H](c3ccoc3)C[C@]21C` [Compound 5, (2S,4aR,6aR,6aR,10aR,10bR)-Methyl 2-(furan-3-yl)-9-((benzoyl)oxy)-6a,10b-dimethyl-4,10-dioxo-2,4,4a,5,6,6a,7,10,10a,10b-decahydro-1H-benzo[f]isochromene-7-carboxylate], at κ opioid receptor (KOR), the EC50 was > 10000 nM and the “activity at the KOR” value is listed as “no activity”. In addition, the antinociceptive effects entry in the data set on mice [1] (5 and 10 mg/kg i.p., similar to morphine at 10 mg/kg) is “significant antinociceptive effects”. Moreover, the ED50 in the data set with mice [2] turned out to be 9.72 mg/kg. For the same molecule, in the data set with mice [3], the “antinociceptive effects over days of daily administration (tolerance)” value is given as “maintained antinociceptive efficacy from days 1-6” and the “antinociceptive effects on day 6 challenge after daily vehicle” value is given as “antinociceptive effects similar to day 1”. Moreover, the conditioned place preference entry in the data set on Sprague Dawley rats (5 mg/kg) is “Neither kurkinorin (5) nor herkinorin (2) were significantly different to vehicle”. Besides, the conditioned place preference result in the data set on Sprague Dawley rats (10 mg/kg, listed as Kurkinorin) is “significant decrease in preference compared to morphine; also recorded: not significantly different form vehicle”.

Usually melting point stands for the temperature, or range, at which the solid turns liquid. Molecule `COC(=O)[C@@H]1C=C(OC(=O)c2ccc(O)cc2)C(=O)[C@H]2[C@@]1(C)CC[C@H]1C(=O)O[C@H](c3ccoc3)C[C@]21C` [Table 3 Entry 3, (2S,4aR,6aR,7R,10aR,10bR)-Methyl 2-(furan-3-yl)-9-((4-hydroxybenzoyl)oxy)-6a,10b-dimethyl-4,10-dioxo-2,4,4a,5,6,6a,7,10,10a,10b-decahydro-1H-benzo[f]isochromene-7-carboxylate] had a melting point of 136 to 139 °C. Also, the EC50 on μ opioid receptor (MOR) (EC50) came to 0.83 ± 0.04 nM.

For the molecule `CN1CC[C@]23c4c5ccc(O)c4O[C@H]2[C@@H](O)C=C[C@H]3[C@H]1C5` [Morphine, morphine, reference compound], the 50% effect level in the data set with mice [2] (ED50) was put at a dose of 9.86 mg/kg. Moreover, in the data set on mice [3], the “antinociceptive effects over days of daily administration (tolerance)” value was “significant antinociceptive effects on days 1, 3, and 5 but not day 6”; the “antinociceptive effects on day 6 challenge after daily vehicle” value is given as “antinociceptive effects similar to day 1”. Moreover, the conditioned place preference entry with Sprague Dawley rats (5 mg/kg) is reported as “significant place preference”. The conditioned place preference result in the data set with Sprague Dawley rats (10 mg/kg) was “significant place preference”. Moreover, the “motor coordination (rotarod)” value with mice [4] is recorded as “significant decrease in motor coordination”.
